# Measured values reported in publication PMC11956013, “Structure–Activity Relationships and Evaluation of 2-(Heteroaryl-cycloalkyl)-1H-indoles as Tauopathy Positron Emission Tomography Radiotracers” (Journal of Medicinal Chemistry, 2025).
# Values joined by “and” are separate entries in the source; they are usually repeats but may differ in a detail not shown here. Equal entries are not always repeated. Where two headings read alike, the source gives them in different places.
# How the values were obtained:
# M3 (h) = M3 (h) (Homo sapiens, UniProt P20309); conditions: Specific binding; reference compound
# M3 (h), sequence (P20309 whole entry): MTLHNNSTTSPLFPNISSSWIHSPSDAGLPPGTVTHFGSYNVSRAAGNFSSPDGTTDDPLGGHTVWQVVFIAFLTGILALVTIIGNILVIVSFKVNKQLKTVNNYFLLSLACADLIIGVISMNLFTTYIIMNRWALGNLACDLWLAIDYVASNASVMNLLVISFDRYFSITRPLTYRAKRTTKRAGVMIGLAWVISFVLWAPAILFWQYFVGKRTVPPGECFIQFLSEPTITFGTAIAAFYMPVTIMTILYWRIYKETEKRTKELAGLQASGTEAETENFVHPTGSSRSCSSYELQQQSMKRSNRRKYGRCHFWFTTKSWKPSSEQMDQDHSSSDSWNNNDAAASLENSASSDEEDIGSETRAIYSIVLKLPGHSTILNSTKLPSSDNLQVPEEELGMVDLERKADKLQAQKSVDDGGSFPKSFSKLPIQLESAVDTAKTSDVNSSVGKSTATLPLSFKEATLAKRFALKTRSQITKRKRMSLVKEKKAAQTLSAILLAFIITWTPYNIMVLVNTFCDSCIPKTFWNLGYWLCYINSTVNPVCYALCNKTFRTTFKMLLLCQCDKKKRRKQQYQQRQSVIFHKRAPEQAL
# M4 (h) = M4 (h) (Homo sapiens, UniProt P08173); assay: M4 (h) (antagonist radioligand), Eurofins assay 96; conditions: Specific binding; reference compound
# M5 (h) = biological target: T1, M5 (h) (Homo sapiens, UniProt P08912); assay: M5 (h) (antagonist radioligand), Eurofins assay 97; conditions: Specific binding, reference compound
# T1 sequence (P08912 1-532): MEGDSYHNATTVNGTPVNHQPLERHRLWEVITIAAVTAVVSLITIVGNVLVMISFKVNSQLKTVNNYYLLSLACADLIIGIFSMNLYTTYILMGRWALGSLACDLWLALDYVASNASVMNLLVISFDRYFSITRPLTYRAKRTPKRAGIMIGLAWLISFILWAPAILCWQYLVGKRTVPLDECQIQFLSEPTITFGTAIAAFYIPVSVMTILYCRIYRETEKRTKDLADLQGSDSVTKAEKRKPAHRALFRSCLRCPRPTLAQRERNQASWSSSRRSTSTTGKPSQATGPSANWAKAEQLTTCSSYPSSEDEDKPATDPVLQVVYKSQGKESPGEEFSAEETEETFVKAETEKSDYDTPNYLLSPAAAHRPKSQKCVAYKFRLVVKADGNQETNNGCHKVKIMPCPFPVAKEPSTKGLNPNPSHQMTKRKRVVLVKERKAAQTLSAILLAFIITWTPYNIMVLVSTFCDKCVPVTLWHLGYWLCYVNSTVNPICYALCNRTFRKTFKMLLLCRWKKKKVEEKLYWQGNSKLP
# [1] = biological target: T2, aggregated tau (mixed 3R/4R-tau) in AD brain tissue homogenates (Homo sapiens, UniProt P10636); assay: In vitro competition (Ki) assay versus [^3H]7, AD brain tissue homogenate; format: binding; conditions: radioligand [^3H]7 ∼1 nM
# Target sequence in this assay (P10636 623-695 limits assumed): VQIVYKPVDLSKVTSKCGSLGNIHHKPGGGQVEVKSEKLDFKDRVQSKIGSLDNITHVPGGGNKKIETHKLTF
# [2] = biological target: T3, aggregated tau (4R-tau) in PSP brain tissue homogenates (Homo sapiens, UniProt P10636); assay: In vitro competition (Ki) assay versus [^3H]7, PSP brain tissue homogenate; format: binding; conditions: radioligand [^3H]7 ∼1 nM
# T3 construct: from tissue
# T3 sequence (P10636 1-441 isoform P10636-8): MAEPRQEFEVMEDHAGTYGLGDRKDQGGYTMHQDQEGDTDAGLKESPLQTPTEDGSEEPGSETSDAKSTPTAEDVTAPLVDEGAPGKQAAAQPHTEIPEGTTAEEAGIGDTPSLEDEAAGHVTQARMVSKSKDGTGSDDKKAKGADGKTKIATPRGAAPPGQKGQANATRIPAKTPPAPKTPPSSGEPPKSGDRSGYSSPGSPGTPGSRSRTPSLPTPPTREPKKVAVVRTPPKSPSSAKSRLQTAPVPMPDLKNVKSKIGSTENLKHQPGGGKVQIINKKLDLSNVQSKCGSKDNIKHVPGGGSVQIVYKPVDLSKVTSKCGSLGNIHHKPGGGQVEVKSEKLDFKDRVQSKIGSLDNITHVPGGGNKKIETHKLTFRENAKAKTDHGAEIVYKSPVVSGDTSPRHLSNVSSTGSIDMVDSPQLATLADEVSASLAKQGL
# [3] = biological target: T2, aggregated tau (mixed 3R/4R-tau) in AD brain tissue homogenates; assay: In vitro competition (Ki) assay versus [^3H]8, AD brain tissue homogenate; format: binding; conditions: radioligand [^3H]8 ∼1 nM
# Target sequence in this assay (P10636 623-708 limits assumed): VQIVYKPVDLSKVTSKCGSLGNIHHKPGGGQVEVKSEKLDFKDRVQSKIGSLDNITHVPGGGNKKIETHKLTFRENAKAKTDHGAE
# [4] = biological target: T3, aggregated tau (4R-tau) in PSP brain tissue homogenates; assay: In vitro competition (Ki) assay versus [^3H]8, PSP brain tissue homogenate; format: binding; conditions: radioligand [^3H]8 ∼1 nM
# [5] = biological target: T2, aggregated tau (mixed 3R/4R-tau) in AD brain tissue homogenates; assay: In vitro competition (Ki) assay versus [^3H]75, AD brain tissue homogenate; format: binding; conditions: AD brain tissue homogenate; radioligand [^3H]75; n = 3, mean ± SD
# Target sequence in this assay (P10636 623-695 limits assumed): as the sequence (P10636 623-695 limits assumed) above
# [6] = biological target: T3, aggregated tau (4R-tau) in PSP brain tissue homogenates; assay: In vitro competition (Ki) assay versus [^3H]75, PSP brain tissue homogenate; format: binding; conditions: PSP brain tissue homogenate; radioligand [^3H]75; n = 3, mean ± SD
# [7] = biological target: T4, aggregated tau (3R-tau) in PiD brain tissue homogenates (Homo sapiens, UniProt P10636); assay: In vitro competition (Ki) assay versus [^3H]75, PiD brain tissue homogenate; format: binding; conditions: PiD brain tissue homogenate; radioligand [^3H]75; n = 3, mean ± SD
# T4 construct: or only 3R-tau aggregates (PiD middle frontal gyrus); from tissue; host or cells: post-mortem human PiD brain, middle frontal gyrus homogenate
# T4 sequence (P10636 1-410 isoform P10636-5): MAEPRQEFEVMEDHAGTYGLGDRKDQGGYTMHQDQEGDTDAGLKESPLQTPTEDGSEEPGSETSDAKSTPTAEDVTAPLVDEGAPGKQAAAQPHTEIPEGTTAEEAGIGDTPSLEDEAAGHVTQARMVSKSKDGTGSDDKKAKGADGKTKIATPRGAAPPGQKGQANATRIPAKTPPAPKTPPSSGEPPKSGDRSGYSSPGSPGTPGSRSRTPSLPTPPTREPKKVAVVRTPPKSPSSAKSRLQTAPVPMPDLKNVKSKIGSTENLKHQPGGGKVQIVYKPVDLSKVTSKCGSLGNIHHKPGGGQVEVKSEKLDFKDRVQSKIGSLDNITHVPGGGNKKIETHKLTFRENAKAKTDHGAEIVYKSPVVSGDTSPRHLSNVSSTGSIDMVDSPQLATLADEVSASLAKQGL
# [8] = biological target: T5, aggregated tau (4R-tau) in CBD brain tissue homogenates (Homo sapiens, UniProt P10636); conditions: read-out: Ki versus [^3H]7, CBD tissue; CBD brain tissue homogenate; radioligand [^3H]7 ∼1 nM
# T5 sequence (P10636 1-441 isoform P10636-8): as the sequence (P10636 1-441 isoform P10636-8) above
# [9] = biological target: T5, aggregated tau (4R-tau) in CBD brain tissue homogenates; conditions: read-out: Ki versus [^3H]8, CBD tissue; CBD brain tissue homogenate; radioligand [^3H]8 ∼1 nM
# [10] = biological target: T2, aggregated tau (mixed 3R/4R-tau) in AD brain tissue homogenates; set-up: method as in earlier work; conditions: AD brain tissue homogenate; radioligand [^3H]3; read-out: Ki versus [^3H]3, AD tissue; cited from earlier work
# Target sequence in this assay (P10636 623-695 limits assumed): as the sequence (P10636 623-695 limits assumed) above
# [11] = biological target: T3, aggregated tau (4R-tau) in PSP brain tissue homogenates; set-up: method as in earlier work; conditions: PSP brain tissue homogenate; radioligand [^3H]3; read-out: Ki versus [^3H]3, PSP tissue; cited from earlier work
# [12] = biological target: T5, aggregated tau (4R-tau) in CBD brain tissue homogenates; assay: In vitro competition (Ki) assay versus [^3H]75, CBD brain tissue homogenate; format: binding; set-up: from tissue; host or cells: post-mortem human CBD brain, middle frontal gyrus homogenate; conditions: CBD brain tissue homogenate; radioligand [^3H]75; n = 3, mean ± SD
# [13] = biological target: T5, aggregated tau (4R-tau) in CBD brain tissue homogenates; set-up: from tissue; host or cells: post-mortem human CBD brain, middle frontal gyrus homogenate; method as in earlier work; conditions: CBD brain tissue homogenate; radioligand [^3H]3; read-out: Ki versus [^3H]3, CBD tissue; cited from earlier work
# [14] = biological target: T2, aggregated tau (mixed 3R/4R-tau) in AD brain tissue homogenates; assay: In vitro competition (Ki) assay versus [^3H]3, AD brain tissue homogenate; format: binding; conditions: radioligand [^3H]3 ∼1 nM
# Target sequence in this assay (P10636 623-695 limits assumed): as above
# [15] = biological target: T3, aggregated tau (4R-tau) in PSP brain tissue homogenates; assay: In vitro competition (Ki) assay versus [^3H]3, PSP brain tissue homogenate; format: binding; conditions: radioligand [^3H]3 ∼1 nM
# [16] = biological target: T5, aggregated tau (4R-tau) in CBD brain tissue homogenates; assay: biochemical
# [17] = biological target: T5, aggregated tau (4R-tau) in CBD brain tissue homogenates; assay: In vitro competition (Ki) assay versus [^3H]3, CBD brain tissue homogenate; format: binding; set-up: from tissue; host or cells: post-mortem human CBD brain, middle frontal gyrus homogenate; conditions: radioligand [^3H]3 ∼1 nM
# [18] = biological target: Adenosine Guinea Pig Transporter (Cavia porcellus, UniProt H0V4R7); assay: Adenosine Guinea Pig Transporter Mass Spectrometry Binding (Antagonist Ligand) Assay, Cerep; conditions: reference compound
# CYP1A2 = CYP1A2 (Homo sapiens, UniProt P05177); conditions: In Vitro Metabolism; HLM, Tacrine substrate; reference compound
# CYP2C19 = CYP2C19 (Homo sapiens, UniProt P33261); conditions: In Vitro Metabolism; HLM, Omeprazole substrate; reference compound
# CYP2C19, sequence (P33261 whole entry): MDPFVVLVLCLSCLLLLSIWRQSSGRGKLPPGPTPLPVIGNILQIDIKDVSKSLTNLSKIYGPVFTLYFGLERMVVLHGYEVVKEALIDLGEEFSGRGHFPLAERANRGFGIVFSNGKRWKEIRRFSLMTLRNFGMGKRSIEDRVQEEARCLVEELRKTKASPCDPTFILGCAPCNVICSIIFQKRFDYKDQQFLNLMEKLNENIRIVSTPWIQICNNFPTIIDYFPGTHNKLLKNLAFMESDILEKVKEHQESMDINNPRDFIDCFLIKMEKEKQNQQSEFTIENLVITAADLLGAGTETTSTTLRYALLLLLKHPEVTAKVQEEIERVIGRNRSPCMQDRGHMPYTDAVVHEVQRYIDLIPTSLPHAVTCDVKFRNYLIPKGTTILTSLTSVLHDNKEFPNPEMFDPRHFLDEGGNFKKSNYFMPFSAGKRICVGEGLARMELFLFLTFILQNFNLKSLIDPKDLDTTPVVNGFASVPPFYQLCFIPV
# CYP2D6 = CYP2D6 (Homo sapiens, UniProt P10635); conditions: In Vitro Metabolism; HLM, Dextromethorphan substrate; reference compound
# D1 (h) = D1 (h) (Homo sapiens, UniProt P21728); conditions: Specific binding; reference compound
# D2L (h) = D2L (h) (Homo sapiens, UniProt P14416); conditions: Specific binding; reference compound
# GR (h) = GR (h) (Homo sapiens, UniProt P04150); conditions: Specific binding; reference compound
# [19] = biological target: Non-Selective Rat Glycine Ion Channel (Rattus norvegicus, UniProt P07727); assay: Non-Selective Rat Glycine Ion Channel Strychnine Mass Spectrometry Binding Assay, Cerep
# MT1 (ML1A) (h) = MT1 (ML1A) (h) (Homo sapiens, UniProt P48039); assay: Eurofins panel: MT1 (ML1A) (h) (agonist radioligand); format: binding; set-up: purchased Eurofins (CNS SafetyScreen panel, contract assay) assay 1538; conditions: reference compound
# M2 (h) = M2 (h) (Homo sapiens, UniProt P08172); conditions: Specific binding; reference compound
# M2 (h), sequence (P08172 whole entry): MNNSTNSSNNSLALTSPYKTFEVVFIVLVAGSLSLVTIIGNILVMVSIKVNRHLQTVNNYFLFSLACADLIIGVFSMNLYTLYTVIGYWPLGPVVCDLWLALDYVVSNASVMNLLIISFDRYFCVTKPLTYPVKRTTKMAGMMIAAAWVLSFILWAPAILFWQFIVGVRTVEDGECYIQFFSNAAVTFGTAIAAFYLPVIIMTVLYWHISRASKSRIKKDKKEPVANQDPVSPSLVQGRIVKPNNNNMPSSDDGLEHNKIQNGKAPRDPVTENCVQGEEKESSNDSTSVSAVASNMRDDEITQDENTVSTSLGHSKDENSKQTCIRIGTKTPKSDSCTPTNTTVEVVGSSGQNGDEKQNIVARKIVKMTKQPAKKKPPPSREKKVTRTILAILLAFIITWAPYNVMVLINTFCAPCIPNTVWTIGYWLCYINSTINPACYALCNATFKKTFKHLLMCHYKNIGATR
# [20] = biological target: Ca2+ channel (L, dihydropyridine site) (Rattus norvegicus, UniProt P22002); assay: Eurofins panel: Ca2+ channel (L, dihydropyridine site) (antagonist radioligand); conditions: reference compound
# Ca2+ channel (L, dihydropyridine site), sequence (P22002 whole entry): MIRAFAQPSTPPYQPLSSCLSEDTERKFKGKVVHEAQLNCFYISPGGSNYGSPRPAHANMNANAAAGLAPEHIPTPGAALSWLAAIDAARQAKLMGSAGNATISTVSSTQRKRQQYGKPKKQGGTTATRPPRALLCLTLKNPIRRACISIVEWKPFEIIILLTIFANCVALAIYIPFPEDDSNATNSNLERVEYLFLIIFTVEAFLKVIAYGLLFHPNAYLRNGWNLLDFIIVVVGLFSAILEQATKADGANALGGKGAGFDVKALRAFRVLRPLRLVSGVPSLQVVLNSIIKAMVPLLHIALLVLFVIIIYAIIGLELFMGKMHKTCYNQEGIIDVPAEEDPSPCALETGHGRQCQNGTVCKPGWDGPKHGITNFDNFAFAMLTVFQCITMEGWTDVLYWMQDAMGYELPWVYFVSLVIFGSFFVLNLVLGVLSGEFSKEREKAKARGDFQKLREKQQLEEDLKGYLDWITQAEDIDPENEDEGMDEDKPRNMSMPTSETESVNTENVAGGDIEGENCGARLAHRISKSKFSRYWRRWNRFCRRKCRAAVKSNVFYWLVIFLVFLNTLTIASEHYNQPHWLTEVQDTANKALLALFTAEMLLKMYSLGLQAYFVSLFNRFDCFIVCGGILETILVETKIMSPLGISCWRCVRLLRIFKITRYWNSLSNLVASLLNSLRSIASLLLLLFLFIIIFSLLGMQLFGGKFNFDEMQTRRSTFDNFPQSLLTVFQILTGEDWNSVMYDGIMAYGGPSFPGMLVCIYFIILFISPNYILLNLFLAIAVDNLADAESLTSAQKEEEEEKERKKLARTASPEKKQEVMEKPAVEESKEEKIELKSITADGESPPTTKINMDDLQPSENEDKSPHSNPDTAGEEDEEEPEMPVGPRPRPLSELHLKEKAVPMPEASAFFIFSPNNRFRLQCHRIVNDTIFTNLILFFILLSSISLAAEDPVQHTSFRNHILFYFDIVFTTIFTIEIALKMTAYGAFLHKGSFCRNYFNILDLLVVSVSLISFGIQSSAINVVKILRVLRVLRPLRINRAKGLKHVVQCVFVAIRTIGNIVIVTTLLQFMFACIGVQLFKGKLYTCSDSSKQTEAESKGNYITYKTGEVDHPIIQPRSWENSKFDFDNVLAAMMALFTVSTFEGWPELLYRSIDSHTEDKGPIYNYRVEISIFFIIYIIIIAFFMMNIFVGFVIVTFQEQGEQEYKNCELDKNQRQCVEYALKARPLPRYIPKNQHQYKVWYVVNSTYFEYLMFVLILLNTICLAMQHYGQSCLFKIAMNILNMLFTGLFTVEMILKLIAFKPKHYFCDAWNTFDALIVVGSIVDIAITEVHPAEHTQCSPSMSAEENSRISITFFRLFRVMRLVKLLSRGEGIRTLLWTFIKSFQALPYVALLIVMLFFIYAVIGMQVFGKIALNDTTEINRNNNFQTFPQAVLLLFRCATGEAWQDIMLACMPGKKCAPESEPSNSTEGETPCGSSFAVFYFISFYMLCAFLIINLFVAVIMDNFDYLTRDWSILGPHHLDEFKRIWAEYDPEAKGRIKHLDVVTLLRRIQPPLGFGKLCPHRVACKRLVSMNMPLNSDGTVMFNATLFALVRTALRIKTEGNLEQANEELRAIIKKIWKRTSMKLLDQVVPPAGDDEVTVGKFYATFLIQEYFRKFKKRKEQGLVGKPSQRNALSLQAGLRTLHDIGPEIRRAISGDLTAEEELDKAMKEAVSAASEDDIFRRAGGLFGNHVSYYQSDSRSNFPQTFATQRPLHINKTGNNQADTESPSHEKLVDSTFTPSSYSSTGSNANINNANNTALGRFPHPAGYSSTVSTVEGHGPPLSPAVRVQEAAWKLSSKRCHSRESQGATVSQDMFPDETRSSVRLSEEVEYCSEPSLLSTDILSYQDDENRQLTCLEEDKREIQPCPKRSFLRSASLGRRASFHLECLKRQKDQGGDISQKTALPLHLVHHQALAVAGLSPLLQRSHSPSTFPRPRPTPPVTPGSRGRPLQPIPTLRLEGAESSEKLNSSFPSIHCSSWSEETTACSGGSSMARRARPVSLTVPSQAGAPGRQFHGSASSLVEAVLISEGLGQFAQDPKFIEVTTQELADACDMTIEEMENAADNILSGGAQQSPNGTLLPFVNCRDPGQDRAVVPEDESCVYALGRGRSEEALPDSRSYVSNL
# ATPase (Na+/K+) = assay: Eurofins panel: ATPase (Na+/K+) enzymatic activity; format: biochemical; conditions: reference compound, read-out: Concurrent IC50, Enzymatic activity
# [21] = biological target: COMT (catechol- O-methyl transferase); assay: COMT (catechol- O-methyl transferase), Eurofins assay 457; format: biochemical; conditions: Enzymatic activity; reference compound; read-out: Concurrent IC50
compound,measurement,setting,value
C[N+]1(C)CCC(OC(=O)C(c2ccccc2)c2ccccc2)CC1.[I-] [Compound 4-DAMP],nH,M3 (h),1.577
same,nH,M4 (h),1.959
same,nH,M5 (h),1.178
same,IC50,M5 (h); read-out: Concurrent IC50,0.00235 µM
same,Ki,M5 (h); read-out: Concurrent Ki,0.00117 µM
Fc1ccc2cc(-c3cnc(N4CCOCC4)nc3)[nH]c2c1 [Compound 8],Ki,[1],0.0084 µM
same,Ki,[2],0.013 µM
same,Ki,[3],0.0077 ± 0.0006 µM
same,Ki,[4],0.0085 ± 0.0012 µM
same,Ki,[5],~0.015 µM and 0.015 µM
same,Ki,[6],~0.015 µM and 0.015 µM
same,Ki,[7],~0.024 µM and 0.024 µM
same,Ki,[8],0.011 µM
same,Ki,[9],0.011 ± 0.0013 µM
same,Ki,[10],0.022 µM
same,Ki,[11],0.018 µM
same,Ki,[12],0.016 µM
same,Ki,[13],0.019 µM
"O[C@H]1CCN(c2ccc(-c3cc4ccc(F)cc4[nH]3)cn2)C1 [Compound 9, reference compound]",Ki,[1],0.011 µM
same,Ki,[2],0.0089 µM
same,Ki,[3],0.01 µM
same,Ki,[4],0.011 µM
same,Ki,[14],0.033 µM
same,Ki,[15],0.037 µM
same,Ki,[16],0.015 µM
same,Ki,[17],0.04 µM
COc1cc(C(=O)OCCCN2CCCN(CCCOC(=O)c3cc(OC)c(OC)c(OC)c3)CC2)cc(OC)c1OC [Dilazep],"nH, Specific binding",[18],1.337
Cc1nc2c([nH]1)c(=O)n(C)c(=O)n2Cc1ccco1 [Furafylline],nH,CYP1A2,0.9709
CCN(CC)CC#CCOC(=O)C(O)(c1ccccc1)C1CCCCC1 (stereo not drawn) [Oxybutynin],nH,CYP2C19,0.7474
C=C[C@H]1C[N@@]2CC[C@H]1C[C@@H]2[C@@H](O)c1ccnc2ccc(OC)cc12 [Quinidine],nH,CYP2D6,0.9681
CN1CCc2cc(Cl)c(O)cc2[C@@H](c2ccccc2)C1 [SCH 23390],nH,D1 (h),1.03
CC(C)(C)[C@]1(O)CCN2C[C@H]3c4ccccc4CCc4cccc(c43)[C@@H]2C1 [butaclamol],nH,D2L (h),0.9951
C[C@@H]1C[C@H]2[C@@H]3CCC4=CC(=O)C=C[C@]4(C)[C@@]3(F)[C@@H](O)C[C@]2(C)[C@@]1(O)C(=O)CO [dexamethasone],nH,GR (h),1.051
N=C(N)N/N=C/c1c(Cl)cccc1Cl [guanabenz],"nH, Specific binding",[19],1.024
COc1ccc2[nH]cc(CCNC(C)=O)c2c1 [melatonin],"nH, Specific binding",MT1 (ML1A) (h),1.177
COc1ccccc1CNCCCCCCNCCCCCCCCNCCCCCCNCc1ccccc1OC [methoctramine],nH,M2 (h),1.382
CCOC(=O)C1=C(C)NC(C)=C(C(=O)OC)C1c1cccc([N+](=O)[O-])c1 (stereo not drawn) [nitrendipine],"nH, Specific binding",[20],1.077
C[C@@H]1O[C@@H](O[C@H]2C[C@@H](O)[C@]3(CO)[C@H]4[C@H](O)C[C@]5(C)[C@@H](C6=CC(=O)OC6)CC[C@]5(O)[C@@H]4CC[C@]3(O)C2)[C@H](O)[C@H](O)[C@H]1O [ouabain],IC50,ATPase (Na+/K+),0.569 µM
Ro 41-0960,IC50,[21],0.023 µM
